{"source": "patent US10131679B2", "about": "“Substituted dihydropyrrolopyrazole compound” (UBE INDUSTRIES, LTD., priority 2014, dated 2018)", "key": {"[1]": {"target": "T1, CDK7 (Homo sapiens, UniProt P50613)", "T1 construct": "purchased Carna Biosciences, Inc. 04-108", "T1 sequence (P50613 whole entry)": "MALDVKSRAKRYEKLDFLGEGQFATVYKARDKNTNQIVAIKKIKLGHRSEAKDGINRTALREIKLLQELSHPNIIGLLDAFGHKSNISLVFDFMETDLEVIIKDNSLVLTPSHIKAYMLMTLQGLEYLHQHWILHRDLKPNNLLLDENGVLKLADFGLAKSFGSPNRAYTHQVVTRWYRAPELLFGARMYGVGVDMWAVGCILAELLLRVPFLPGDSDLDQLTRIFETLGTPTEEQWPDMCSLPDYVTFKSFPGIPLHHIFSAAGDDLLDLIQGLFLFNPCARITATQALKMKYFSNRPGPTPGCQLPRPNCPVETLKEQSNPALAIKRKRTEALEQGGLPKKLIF", "T1 sequence (P51946 whole entry partner)": "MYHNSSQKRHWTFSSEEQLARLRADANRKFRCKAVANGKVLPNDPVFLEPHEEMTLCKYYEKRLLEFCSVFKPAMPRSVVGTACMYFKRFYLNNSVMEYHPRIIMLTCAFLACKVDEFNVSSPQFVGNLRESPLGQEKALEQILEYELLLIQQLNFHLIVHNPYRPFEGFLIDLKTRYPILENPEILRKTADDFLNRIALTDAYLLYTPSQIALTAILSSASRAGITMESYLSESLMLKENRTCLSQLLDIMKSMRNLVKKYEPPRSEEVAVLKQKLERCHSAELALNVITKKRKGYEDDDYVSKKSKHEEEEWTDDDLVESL", "T1 sequence (P51948 whole entry partner)": "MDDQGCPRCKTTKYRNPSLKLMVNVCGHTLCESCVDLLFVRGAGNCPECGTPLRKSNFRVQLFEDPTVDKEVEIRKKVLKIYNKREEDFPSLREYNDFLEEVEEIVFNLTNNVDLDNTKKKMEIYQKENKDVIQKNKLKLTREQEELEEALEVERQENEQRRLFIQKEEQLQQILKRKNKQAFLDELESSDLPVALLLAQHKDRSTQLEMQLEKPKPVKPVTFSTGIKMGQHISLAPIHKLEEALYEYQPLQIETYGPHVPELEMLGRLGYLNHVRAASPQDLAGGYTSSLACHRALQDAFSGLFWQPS", "assay": "CDK7 enzyme inhibition test", "format": "biochemical", "details": "Ki=IC50/(1+S/Km); 33P bound to MBP, [γ-33P]ATP, 30° C. for 20 minutes; read-out: Ki value of CDK7 inhibitory activity", "description": "CDK7 Enzyme Inhibition Test\nThe preparation of a buffer solution was performed by mixing a N-2-hydroxyethylpiperazine-N′-2-ethanesulfonic acid buffer solution (HEPES buffer solution) (pH 7.4), dithiothreitol (DTT), Triton X-100, and magnesium chloride (MgCl2). A 500 μM [γ-^33P]ATP solution was used by diluting a 10 mM ATP solution and a commercially available [γ-^33P]ATP solution (manufactured by PerkinElmer, Inc., Code No. NEG-302H) with the buffer solution. A CDK7 solution was used by diluting commercially available CDK7 (manufactured by Carna Biosciences, Inc., Catalog No. 04-108) with the buffer solution. A substrate solution was used by diluting myelin basic protein (MBP) with the buffer solution. As for the preparation of a reaction solution, the buffer solution, the 500 μM [γ-^33P]ATP solution, the CDK7 solution, and the substrate solution were mixed at 4° C. to obtain a reaction solution.\nCDK7 enzyme reaction was performed by adding 5 μL of a test compound solution prepared with 10% dimethyl sulfoxide (DMSO)/90% injectable distilled water, and 45 μL of the reaction solution to a 1.5 mL microtube at 4° C. and reacting in the microtube at 30° C. for 20 minutes in a water bath incubator. After the reaction, a 10% aqueous trichloroacetic acid (TCA) solution was added to each microtube while cooled to 4° C., and mixed to terminate the reaction. The resultant was left standing at 4° C. for 10 minutes and then centrifuged in a centrifuge, and the supernatant was discarded. Next, a 2% aqueous TCA solution was added, mixed, and then centrifuged in a centrifuge, and the supernatant was discarded. This washing operation was performed twice. After the washing, precipitates were dissolved in a 1 N aqueous sodium hydroxide (NaOH) solution, and the energy quantity (radioactivity) of the reaction product was measured with a liquid scintillation counter.\nThe calculation of the inhibitory activity of the test compound against CDK7 was performed as a test compound concentration inhibiting 50% of the amount of ^33P bound to MBP (IC50 value) by using EXSUS (version 8.0.0 or version 8.0.1, manufactured by CAC Exicare Corp.).\nThe calculation of a Ki value was performed according to the following calculation expression. S means the concentration of ATP contained in the reaction solution, and Km means a Michaelis-Menten constant. Ki=IC50/(1+S/Km)"}, "[2]": {"tested_on": "human large intestine cancer cell line (HCT-116)", "assay": "Human large intestine cancer (HCT-116) cell growth inhibition test", "format": "cell-based", "details": "72 h, HCT-116, culture for 3 days, sulforhodamine B absorbance", "description": "Human Large Intestine Cancer (HCT-116) Cell Growth Inhibition Test\nThe measurement of a human large intestine cancer cell growth inhibitory effect was carried out by modifying the method of Simak et al. (Cancer Research, 69, 6208 (2009)).\nA human large intestine cancer cell line (HCT-116) (manufactured by DS Pharma Biomedical Co., Ltd., Cat. No. EC91091005) was cultured in McCoy's 5a (manufactured by GIBCO/Thermo Fisher Scientific, Inc., REF. 16600-082) medium containing 10% FBS (manufactured by GIBCO/Thermo Fisher Scientific, Inc., REF. 10082-147) and 1% penicillin/streptomycin/amphotericin B (manufactured by GIBCO/Thermo Fisher Scientific, Inc., REF. 15240-096) and inoculated at 1.0×10^3 cells/well in a 96-well plate (manufactured by Corning Inc., REF. 353072). After overnight culture in a carbon dioxide incubator, it was replaced with a fresh McCoy's 5a medium containing 10% FBS on the next day, and a test compound dissolved in DMSO (manufactured by Wako Pure Chemical Industries, Ltd., Code No. 043-07216) (final DMSO concentration: 0.1%) was added and left standing in a carbon dioxide incubator. After culturing for 3 days, the absorbance of each well was measured by using In Vitro Toxicology Assay Kit Sulforhodamine B based (manufactured by Sigma-Aldrich Co. LLC., Pcode 1001910706).\nThe rate of inhibition of cell growth at each concentration was calculated from the test compound concentration and the absorbance of sulforhodamine B, and the concentration of the test compound necessary for inhibiting 50% of cell growth (IC50 value) was calculated by using EXSUS (version 8.0.0 or version 8.0.1, manufactured by CAC Exicare Corp.)."}}}
{"compound": "CC1(C)c2[nH]nc(NC(=O)C3([Si](C)(C)C)CCC3)c2CN1C(=O)NC(c1ccccc1)C(F)(F)CO", "note": "(racemic) [IV-362, N-(2,2-Difluoro-3-hydroxy-1-phenylpropyl)-6,6-dimethyl-3-[1-(trimethylsilyl)cyclobutanecarboxamido]-4,6-dihydropyrrolo[3,4-c]pyrazole-5(1H)-carboxamide]", "values": [{"measurement": "Ki", "setting": "[1]", "result": "≤ 50", "unit": "nM"}, {"measurement": "IC50", "setting": "[2]", "result": "≤ 500", "unit": "nM"}]}
{"compound": "CC(C)(CO)C(NC(=O)N1Cc2c(NC(=O)C3([Si](C)(C)C)CCC3)n[nH]c2C1(C)C)c1ccccc1", "note": "(single isomer, unassigned; (+)) [IV-672, (+)-N-(3-Hydroxy-2,2-dimethyl-1-phenylpropyl)-6,6-dimethyl-3-[1-(trimethylsilyl)cyclobutanecarboxamido]-4,6-dihydropyrrolo[3,4-c]pyrazole-5(1H)-carboxamide]", "values": [{"measurement": "IC50", "setting": "[2]", "result": "≤ 500", "unit": "nM"}]}
{"compound": "COC(C(=O)N1Cc2c(NC(=O)C3([Si](C)(C)C)CCC3)n[nH]c2C1(C)C)c1cccs1", "note": "(single isomer, unassigned; (+)) [IV-1547, (+)-N-{5-[2-Methoxy-2-(thiophen-2-yl)acetyl]-6,6-dimethyl-1,4,5,6-tetrahydropyrrolo[3,4-c]pyrazol-3-yl}-1-(trimethylsilyl)cyclobutanecarboxamide]", "values": [{"measurement": "Ki", "setting": "[1]", "result": "≤ 50", "unit": "nM"}]}
{"compound": "CC(C)(CO)C(NC(=O)N1Cc2c(NC(=O)C3([Si](C)(C)C)CCC3)n[nH]c2C1(C)C)c1cccc(F)c1", "note": "(single isomer, unassigned; (-)) [IV-920, (−)-N-[1-(3-Fluorophenyl)-3-hydroxy-2,2-dimethylpropyl]-6,6-dimethyl-3-[1-(trimethylsilyl)cyclobutanecarboxamido]-4,6-dihydropyrrolo[3,4-c]pyrazole-5(1H)-carboxamide]", "values": [{"measurement": "Ki", "setting": "[1]", "result": "≤ 50", "unit": "nM"}]}
{"compound": "CC1(C)c2[nH]nc(NC(=O)C3([Si](C)(C)C)CC3)c2CN1C(=O)[C@H](CO)c1ccccc1", "note": "[III-592, (S)—N-[5-(3-Hydroxy-2-phenylpropanoyl)-6,6-dimethyl-1,4,5,6-tetrahydropyrrolo[3,4-c]pyrazol-3-yl]-1-(trimethylsilyl)cyclopropanecarboxamide]", "values": [{"measurement": "Ki", "setting": "[1]", "result": "≤ 50", "unit": "nM"}, {"measurement": "IC50", "setting": "[2]", "result": "≤ 500", "unit": "nM"}]}
{"compound": "C[C@@H](Oc1ccccc1)C(=O)N1Cc2c(NC(=O)C3([Si](C)(C)C)CC3)n[nH]c2C1(C)C", "note": "[III-1140, (R)—N-[6,6-Dimethyl-5-(2-phenoxypropanoyl)-1,4,5,6-tetrahydropyrrolo[3,4-c]pyrazol-3-yl]-1-(trimethylsilyl)cyclopropanecarboxamide]", "values": [{"measurement": "Ki", "setting": "[1]", "result": "≤ 50", "unit": "nM"}, {"measurement": "IC50", "setting": "[2]", "result": "≤ 500", "unit": "nM"}]}
{"compound": "CC(C)C(O)CNC(=O)N1Cc2c(NC(=O)C3([Si](C)(C)C)CCC3)n[nH]c2C1(C)C", "note": "(stereo not shown) [IV-446, N-(2-Hydroxy-3-methylbutyl)-6,6-dimethyl-3-[1-(trimethylsilyl)cyclobutanecarboxamido]-4,6-dihydropyrrolo[3,4-c]pyrazole-5(1H)-carboxamide]", "values": [{"measurement": "Ki", "setting": "[1]", "result": "≤ 50", "unit": "nM"}, {"measurement": "IC50", "setting": "[2]", "result": "≤ 500", "unit": "nM"}]}
{"compound": "CC1(C)c2[nH]nc(NC(=O)C3([Si](C)(C)C)CCC3)c2CN1C(=O)NC(CO)c1cccnc1", "note": "(stereo not shown) [IV-542, N-[2-Hydroxy-1-(pyridin-3-yl)ethyl]-6,6-dimethyl-3-[1-(trimethylsilyl)cyclobutanecarboxamido]-4,6-dihydropyrrolo[3,4-c]pyrazole-5(1H)-carboxamide]", "values": [{"measurement": "Ki", "setting": "[1]", "result": "≤ 50", "unit": "nM"}]}
{"compound": "CC1(C)c2[nH]nc(NC(=O)C3([Si](C)(C)C)CCC3)c2CN1C(=O)CC(CO)c1ccccc1", "note": "(stereo not shown) [IV-558, N-[5-(4-Hydroxy-3-phenylbutanoyl)-6,6-dimethyl-1,4,5,6-tetrahydropyrrolo[3,4-c]pyrazol-3-yl]-1-(trimethylsilyl)cyclobutanecarboxamide]", "values": [{"measurement": "IC50", "setting": "[2]", "result": "≤ 500", "unit": "nM"}]}
{"compound": "CC1(C)c2[nH]nc(NC(=O)C3([Si](C)(C)C)CCC3)c2CN1C(=O)CC(O)c1ccccc1", "note": "(stereo not shown) [IV-562, N-[5-(3-Hydroxy-3-phenylpropanoyl)-6,6-dimethyl-1,4,5,6-tetrahydropyrrolo[3,4-c]pyrazol-3-yl]-1-(trimethylsilyl)cyclobutanecarboxamide]", "values": [{"measurement": "IC50", "setting": "[2]", "result": "≤ 500", "unit": "nM"}]}
{"compound": "CC1(C)c2[nH]nc(NC(=O)C3([Si](C)(C)C)CCC3)c2CN1C(=O)[C@H](CO)c1ccccc1", "note": "[IV-633, (S)—N-[5-(3-Hydroxy-2-phenylpropanoyl)-6,6-dimethyl-1,4,5,6-tetrahydropyrrolo[3,4-c]pyrazol-3-yl]-1-(trimethylsilyl)cyclobutanecarboxamide]", "values": [{"measurement": "Ki", "setting": "[1]", "result": "≤ 50", "unit": "nM"}, {"measurement": "IC50", "setting": "[2]", "result": "≤ 500", "unit": "nM"}]}
{"compound": "COCC(C(=O)N1Cc2c(NC(=O)C3([Si](C)(C)C)CCC3)n[nH]c2C1(C)C)c1ccccc1", "note": "(stereo not shown) [IV-634, N-[5-(3-Methoxy-2-phenylpropanoyl)-6,6-dimethyl-1,4,5,6-tetrahydropyrrolo[3,4-c]pyrazol-3-yl]-1-(trimethylsilyl)cyclobutanecarboxamide]", "values": [{"measurement": "Ki", "setting": "[1]", "result": "≤ 50", "unit": "nM"}, {"measurement": "IC50", "setting": "[2]", "result": "≤ 500", "unit": "nM"}]}
{"compound": "CCC(O)(CC)C[C@@H](NC(=O)N1Cc2c(NC(=O)C3([Si](C)(C)C)CCC3)n[nH]c2C1(C)C)c1ccccc1", "note": "[IV-759, (R)—N-(3-Ethyl-3-Hydroxy-1-phenylpentyl)-6,6-dimethyl-3-[1-(trimethylsilyl)cyclobutanecarboxamido]-4,6-dihydropyrrolo[3,4-c]pyrazole-5(1H)-carboxamide]", "values": [{"measurement": "IC50", "setting": "[2]", "result": "≤ 500", "unit": "nM"}]}
{"compound": "CC1(C)c2[nH]nc(NC(=O)C3([Si](C)(C)C)CCC3)c2CN1C(=O)N[C@@H](CO)Cc1ccccc1", "note": "[IV-861, (R)—N-(1-Hydroxy-3-phenylpropan-2-yl)-6,6-dimethyl-3-[1-(trimethylsilyl)cyclobutanecarboxamido]-4,6-dihydropyrrolo[3,4-c]pyrazole-5(1H)-carboxamide]", "values": [{"measurement": "IC50", "setting": "[2]", "result": "≤ 500", "unit": "nM"}]}
{"compound": "CC1(C)c2[nH]nc(NC(=O)C3([Si](C)(C)C)CCC3)c2CN1C(=O)C(Oc1ccccc1)c1ccccc1", "note": "(stereo not shown) [IV-1211, N-[6,6-Dimethyl-5-(2-phenoxy-2-phenylacetyl)-1,4,5,6-tetrahydropyrrolo[3,4-c]pyrazol-3-yl]-1-(trimethylsilyl)cyclobutanecarboxamide]", "values": [{"measurement": "IC50", "setting": "[2]", "result": "≤ 500", "unit": "nM"}]}
{"compound": "COCCC(C(=O)N1Cc2c(NC(=O)C3([Si](C)(C)C)CCC3)n[nH]c2C1(C)C)c1ccccc1", "note": "(stereo not shown) [IV-1224, N-[5-(4-Methoxy-2-phenylbutanoyl)-6,6-dimethyl-1,4,5,6-tetrahydropyrrolo[3,4-c]pyrazol-3-yl]-1-(trimethylsilyl)cyclobutanecarboxamide]", "values": [{"measurement": "IC50", "setting": "[2]", "result": "≤ 500", "unit": "nM"}]}
{"compound": "CC(Oc1ccccc1Cl)C(=O)N1Cc2c(NC(=O)C3([Si](C)(C)C)CCC3)n[nH]c2C1(C)C", "note": "(stereo not shown) [IV-1266, N-{5-[2-(2-Chlorophenoxy)propanoyl]-6,6-dimethyl-1,4,5,6-tetrahydropyrrolo[3,4-c]pyrazol-3-yl}-1-(trimethylsilyl)cyclobutanecarboxamide]", "values": [{"measurement": "IC50", "setting": "[2]", "result": "≤ 500", "unit": "nM"}]}
{"compound": "CC(Oc1cccc(Cl)c1)C(=O)N1Cc2c(NC(=O)C3([Si](C)(C)C)CCC3)n[nH]c2C1(C)C", "note": "(stereo not shown) [IV-1268, N-{5-[2-(3-Chlorophenoxy)propanoyl]-6,6-dimethyl-1,4,5,6-tetrahydropyrrolo[3,4-c]pyrazol-3-yl}-1-(trimethylsilyl)cyclobutanecarboxamide]", "values": [{"measurement": "IC50", "setting": "[2]", "result": "≤ 500", "unit": "nM"}]}
{"compound": "CN(C)CC(Oc1ccccc1)C(=O)N1Cc2c(NC(=O)C3([Si](C)(C)C)CCC3)n[nH]c2C1(C)C", "note": "(stereo not shown) [IV-1372, N-{5-[3-(Dimethylamino)-2-phenoxypropanoyl]-6,6-dimethyl-1,4,5,6-tetrahydropyrrolo[3,4-c]pyrazol-3-yl}-1-(trimethylsilyl)cyclobutanecarboxamide]", "values": [{"measurement": "Ki", "setting": "[1]", "result": "≤ 50", "unit": "nM"}]}
